# Results taken from patent US8436039B2, “Inhibitors of the ATB(0,+) transporter and uses thereof” (Georgia Health Sciences University Research Institute, Inc., priority 2008, dated 2013).
# pIC50: −log10 of the molar value.
# Legend:
# Type in all cases: cell-based
# mouse ATB^0,+ [1] = molecular target: T1, mouse ATB^0,+ (Mus musculus, UniProt Q9JMA9); experiment: Inhibition of ATB^0,+-mediated glycine uptake in HRPE cells expressing cloned mouse ATB^0,+; conditions: glycine 10 μM; inhibitor 1 mM; 30 min; NaCl; HRPE cells
# T1 sequence (Q9JMA9 1-638): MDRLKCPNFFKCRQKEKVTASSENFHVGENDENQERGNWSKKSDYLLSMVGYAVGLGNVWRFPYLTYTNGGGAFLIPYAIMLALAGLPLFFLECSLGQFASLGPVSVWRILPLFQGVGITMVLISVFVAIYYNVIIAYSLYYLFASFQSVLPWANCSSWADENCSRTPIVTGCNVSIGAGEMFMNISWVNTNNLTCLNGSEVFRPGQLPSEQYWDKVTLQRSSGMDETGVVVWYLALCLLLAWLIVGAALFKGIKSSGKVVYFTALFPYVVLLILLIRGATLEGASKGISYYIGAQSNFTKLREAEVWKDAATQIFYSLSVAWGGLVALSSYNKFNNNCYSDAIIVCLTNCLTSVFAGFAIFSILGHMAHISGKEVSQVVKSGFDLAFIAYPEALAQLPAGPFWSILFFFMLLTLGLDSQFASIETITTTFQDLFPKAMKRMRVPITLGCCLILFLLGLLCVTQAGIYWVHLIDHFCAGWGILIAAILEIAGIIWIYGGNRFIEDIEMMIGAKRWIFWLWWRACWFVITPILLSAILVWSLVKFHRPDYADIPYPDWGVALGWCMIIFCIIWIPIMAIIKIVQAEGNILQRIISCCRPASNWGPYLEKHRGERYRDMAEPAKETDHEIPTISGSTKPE
# mouse ATB^0,+ [2] = molecular target: T1, mouse ATB^0,+; experiment: Substrate-induced inward currents in X. laevis oocytes expressing mouse ATB^0,+ (two-microelectrode voltage clamp); conditions: voltage clamp, NaCl; for inward currents induced in ATB^0,+-expressing oocytes: 2.5 mM
# Experimental: (§1) Capped cRNA from the cloned mouse or human ATB^0,+ cDNA was synthesized using the mMESSAGE mMACHTNE kit (Ambion, Austin, Tex., U.S.A.). Mature oocytes (stage IV or V) from X. laevis were injected with 50 ng of cRNA. Uninjected oocytes served as controls. The oocytes were used for electrophysiological studies 3-6 days after cRNA injection. Electrophysiological studies were performed by the two-microelectrode voltage-clamp method (Nakanishi et al., 2001, J. Physiol. 532, 297-304). Oocytes were superfused with an NaCl-containing buffer (100 mM NaCl, 2 mM KCl, 1 mM MgCl2, 1 mM CaCl2, 3 mM Hepes, 3 mM Mes and 3 mM Tris, pH 7.5), followed by the same buffer containing tryptophan derivatives. The membrane potential was clamped at −50 mV. The differences between the steady-state currents measured in the presence and absence of substrates were considered as the substrate-induced currents. In the analysis of the saturation kinetics of substrate-induced currents, the kinetic parameter K0.5 (i.e. substrate concentration necessary for induction of half-maximal current) was calculated by fitting the values of the substrate-induced currents to the Michaelis-Menten equation. The Na^+ and Cl^− activation kinetics of substrate-induced currents were analysed by measuring the substrate-specific currents in the presence of increasing concentrations of Na^+ (concentration of Cl^− kept constant at 100 mM) or in the presence of increasing concentrations of Cl^− (concentration of Na^+ kept constant at 100 mM). In these experiments, the composition of the superfusion buffer was modified to contain 2 mM potassium gluconate, 1 mM MgSO4 and 1 mM calcium gluconate in place of KCl, MgCl2 and CaCl2 respectively. The data from these experiments were analysed by the Hill equation to determine the Hill coefficient (h; number of Na^+ and Cl^− ions involved in the activation process). The kinetic parameters were determined by using the commercially available computer program Sigma Plot, version 6.0 (SPSS, Chicago, Ill., U.S.A.). Uninjected oocytes were used to determine the currents induced by tryptophan derivatives due to entry via transporters that may be constitutively expressed in the oocytes. At a concentration of 2.5 mM, the currents induced by these compounds were in the range of 0-3 nA in uninjected oocytes. These currents were less than 2% of the corresponding currents induced in ATB^0,+ cRNA-injected oocytes. Therefore the endogenous currents associated with the constitutively expressed transporters were not considered in the analysis of kinetic parameters of ATB^0,+ transport activity.
# The above studies with the mammalian cell expression system have focused on the interaction of 1-methyltryptophan and other tryptophan derivatives with ATB^0,+ by examining the effects of these compounds on the transporter-mediated glycine uptake. These studies have shown convincingly that 1-methyltryptophan interacts with ATB^0,+, with the L-isomer having much higher affinity for the transporter than the D-isomer. However, these studies have not shown whether or not 1-methyltryptophan is actually a transportable substrate for ATB^0,+. It is possible that 1-methyltryptophan inhibits ATB^0,+-mediated glycine uptake simply by blocking the interaction of glycine with the substrate-binding site of the transporter, rather than by actually competing with glycine for the transport process. […] We wanted to know whether 1-methyltryptophan can actually be transported by ATB^0,+. For this, we used the X. laevis oocyte expression system. Since the transport process mediated by ATB^0,+ is electrogenic, exposure of ATB^0,+-expressing oocytes to transportable substrates will induce an inward current in an Na^+- and Cl^−-dependent manner. Exposure of the same oocytes to blockers will interfere with currents induced by transportable substrates, but will not induce currents by themselves. […]
# ATB^0,+ in MCF7 cells = molecular target: T2, ATB^0,+ in MCF7 cells (Homo sapiens, UniProt Q9UN76); experiment: D-serine uptake in MCF7 cells (constitutively expressed ATB^0,+); conditions: MCF7 cells; for pIC50: D-serine 5 μM, NaCl, read-out: IC50 for inhibition of D-serine uptake
# T2 construct: host or cells: MCF7
# T2 sequence (Q9UN76 1-642): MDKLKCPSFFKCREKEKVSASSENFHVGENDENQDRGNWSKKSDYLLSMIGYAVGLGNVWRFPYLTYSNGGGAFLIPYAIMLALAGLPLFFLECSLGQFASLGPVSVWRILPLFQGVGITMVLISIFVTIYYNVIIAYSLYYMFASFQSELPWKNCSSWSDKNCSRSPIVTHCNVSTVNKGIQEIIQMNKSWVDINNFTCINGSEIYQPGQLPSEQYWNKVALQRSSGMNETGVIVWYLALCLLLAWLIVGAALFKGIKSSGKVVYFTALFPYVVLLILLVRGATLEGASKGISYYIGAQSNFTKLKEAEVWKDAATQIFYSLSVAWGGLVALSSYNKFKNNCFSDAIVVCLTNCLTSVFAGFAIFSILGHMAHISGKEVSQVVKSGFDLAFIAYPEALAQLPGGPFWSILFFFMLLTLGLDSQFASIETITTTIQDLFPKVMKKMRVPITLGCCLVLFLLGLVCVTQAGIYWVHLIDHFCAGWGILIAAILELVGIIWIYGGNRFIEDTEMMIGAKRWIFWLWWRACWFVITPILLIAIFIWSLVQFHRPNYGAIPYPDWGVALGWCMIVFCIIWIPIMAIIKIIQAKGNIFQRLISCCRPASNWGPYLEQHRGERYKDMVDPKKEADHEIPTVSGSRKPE
# Experimental: Cells were seeded and grown in 24-well culture plates to confluency and used for uptake measurements. Radiolabelled glycine or D-serine was used as the substrate to determine the transport function of ATB^0,+. Uptake measurements were routinely made in an NaCl-containing buffer (25 mM Hepes/Tris buffer, pH 7.4, 140 mM NaCl, 5.4 mM KCl, 1.8 mM CaCl2, 0.8 mM MgSO4 and 5 mM glucose). Ion dependence of the transport process was evaluated by studying the uptake activity in buffers of varying compositions. NaCl in the uptake buffer was replaced iso-osmotically with NMDG (N-methyl-D-glucamine) chloride to prepare an Na^+-free buffer, and with sodium gluconate to prepare a Cl^−-free buffer. Linear uptake rates were determined by employing a 10 min incubation period, based on time course experiments. Na^+-activation kinetics was analysed by studying the uptake rates in the presence of varying concentrations of Na^+ (2.5-140 mM) in the uptake buffer with Cl^− concentration kept constant at 140 mM. This was done by replacing NaCl with appropriate concentrations of NMDG. Cl^−-activation kinetics was analysed by studying the uptake rates in the presence of varying concentrations of Cl^− (2.5-100 mM) in the uptake buffer with Na^+ concentration kept constant at 140 mM. This was done by replacing NaCl with appropriate concentrations of sodium gluconate. Uptake data for Na^+- and Cl^−-activation kinetics were analysed using the Hill equation, and values for K0.5 for Na^+ and Cl^− and for the Hill coefficient (h) were determined by linear and non-linear regression methods. A commercially available software program (Sigma Plot, version 6.0; SPSS) was used for this purpose. Substrate specificity of the uptake process was evaluated by monitoring the effects of unlabelled amino acids (5 mM) on the uptake of radiolabelled glycine or D-serine (5 μM: radiolabelled substrate, 0.05 μM; unlabelled substrate, 4.95 μM).
# The kinetic nature of inhibition of D-serine uptake by α-methyl-DL-tryptophan was investigated in MCF7 cells by monitoring the uptake at increasing concentrations of D-serine (range, 50-2000 μM) in the absence and presence of 100 μM α-methyl-DL-tryptophan. The kinetic parameters were calculated by linear regression (Eadie-Hofstee plots) and the values were confirmed by non-linear regression.
# We employed a similar experimental strategy to detect specifically the transport function of ATB^0,+ in the remaining seven cell lines. […] We also investigated the effect of α-methyl-DL-tryptophan on D-serine uptake in MCF7 cells.
# human LAT1/4F2hc = human LAT1/4F2hc (Homo sapiens, UniProt Q01650); experiment: Inhibition of LAT1 transport function: L-valine uptake in HRPE cells co-expressing human LAT1 and human 4F2hc; conditions: 1 mM; L-[14C]valine 0.75 μM; 5 min
# Sequence of human LAT1/4F2hc (Q01650 whole entry): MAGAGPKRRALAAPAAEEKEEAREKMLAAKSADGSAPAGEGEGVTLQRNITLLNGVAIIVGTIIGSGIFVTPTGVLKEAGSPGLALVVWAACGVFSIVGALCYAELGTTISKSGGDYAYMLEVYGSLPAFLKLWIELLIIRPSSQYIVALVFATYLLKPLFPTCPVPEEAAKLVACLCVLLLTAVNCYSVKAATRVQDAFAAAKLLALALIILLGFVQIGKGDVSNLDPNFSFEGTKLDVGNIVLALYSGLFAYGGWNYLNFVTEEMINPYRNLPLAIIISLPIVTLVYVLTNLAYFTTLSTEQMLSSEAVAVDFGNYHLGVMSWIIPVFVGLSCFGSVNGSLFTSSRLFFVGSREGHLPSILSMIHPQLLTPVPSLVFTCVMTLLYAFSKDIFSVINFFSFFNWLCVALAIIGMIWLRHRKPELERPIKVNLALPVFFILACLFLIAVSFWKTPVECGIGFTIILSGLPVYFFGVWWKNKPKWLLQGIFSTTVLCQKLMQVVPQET
# Sequence of human LAT1/4F2hc (P08195 102-630 partner): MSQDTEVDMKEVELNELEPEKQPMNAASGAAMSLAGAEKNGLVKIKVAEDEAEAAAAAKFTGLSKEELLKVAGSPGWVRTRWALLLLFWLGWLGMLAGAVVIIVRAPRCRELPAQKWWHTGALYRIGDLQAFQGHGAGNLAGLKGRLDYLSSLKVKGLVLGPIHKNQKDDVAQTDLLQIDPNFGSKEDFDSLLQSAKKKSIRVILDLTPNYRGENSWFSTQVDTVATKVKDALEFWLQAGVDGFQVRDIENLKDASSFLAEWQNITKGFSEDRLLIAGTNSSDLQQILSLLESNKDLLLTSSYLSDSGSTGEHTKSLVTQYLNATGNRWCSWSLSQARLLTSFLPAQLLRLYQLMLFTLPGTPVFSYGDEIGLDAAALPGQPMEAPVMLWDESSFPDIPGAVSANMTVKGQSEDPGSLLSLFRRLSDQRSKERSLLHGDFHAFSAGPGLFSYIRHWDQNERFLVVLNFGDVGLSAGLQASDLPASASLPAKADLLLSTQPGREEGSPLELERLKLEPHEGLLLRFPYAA
# human ATB^0,+ = molecular target: T3, human ATB^0,+ (Homo sapiens, UniProt Q9UN76); experiment: Block of inward currents induced by amino acid mixture simulating plasma in X. laevis oocytes expressing human ATB^0,+; conditions: even at 1 mM; amino acid mixture simulating plasma
# T3 construct: The human ATB^0,+ cDNA was cloned from an MCF7 cell (a human mammary epithelial cancer cell line) cDNA library; expressed in transfected cells; host or cells: Xenopus laevis oocytes injected with 50 ng capped cRNA
# T3 sequence (Q9UN76 1-642): T2 sequence (Q9UN76 1-642)
# Experimental: as §1
# These studies with α-methyl-DL-tryptophan as a blocker of ATB^0,+ were carried out with L-tryptophan at sub-saturating concentrations. […] Therefore, using the Xenopus oocyte heterologous expression system, we monitored the transport activity of human ATB^0,+ in the presence of an amino acid mixture consisting of 18 different amino acids, each at its respective physiological concentration found in plasma (Glew et al., 2004, Clin. Chim. Acta 342, 179-185) (Table 1). Inward currents were detected under these conditions in oocytes expressing human ATB^0,+. […] We then monitored the ability of α-methyl-DL-tryptophan to block the inward currents induced by the same mixture of amino acids in oocytes expressing human ATB^0,+ (FIG. 4B). […]
smiles,measurement,setting,value
Cc1cccc2[nH]cc(CC(N)C(=O)O)c12 (racemic) [4-methyl-DL-tryptophan],"inhibition of ATB^0,+-specific glycine uptake","mouse ATB^0,+ [1]",inhibited
Cc1ccc2[nH]cc(CC(N)C(=O)O)c2c1 (racemic) [5-methyl-DL-tryptophan],"inhibition of ATB^0,+-specific glycine uptake","mouse ATB^0,+ [1]",inhibited
Cc1ccc2c(CC(N)C(=O)O)c[nH]c2c1 (racemic) [6-methyl-DL-tryptophan],"inhibition of ATB^0,+-specific glycine uptake","mouse ATB^0,+ [1]",inhibited
N[C@@H](Cc1c[nH]c2ccc(O)cc12)C(=O)O [5-hydroxy-L-tryptophan],"inhibition of ATB^0,+-specific glycine uptake","mouse ATB^0,+ [1]",inhibited
NCCc1c[nH]c2ccc(O)cc12 [5-hydroxytryptamine],"inhibition of ATB^0,+-specific glycine uptake","mouse ATB^0,+ [1]",not able to inhibit
same,"inward currents induced in ATB^0,+-expressing oocytes","mouse ATB^0,+ [2]",did not induce currents
N=C(N)NCCC[C@H](N)C(=O)O [Arginine],pIC50,"ATB^0,+ in MCF7 cells",3.30 to 3.60
N[C@H](CO)C(=O)O [D-serine],Kt for D-serine uptake,"ATB^0,+ in MCF7 cells; absence of the blocker",517 ± 38 µM
same,Vmax for D-serine uptake,"ATB^0,+ in MCF7 cells; absence of the blocker",32.4±1.5 nmol/mg of protein per 15 min
N[C@H](Cc1c[nH]c2ccccc12)C(=O)O [D-tryptophan],"inhibition of ATB^0,+-specific glycine uptake","mouse ATB^0,+ [1]",inhibited
same,Michaelis constant (K0.5) of substrate-induced currents,"mouse ATB^0,+ [2]; saturation kinetics",288 ± 48 µM
COC(=O)[C@@H](N)Cc1c[nH]c2ccccc12 [L-tryptophan methyl ester],"inhibition of ATB^0,+-specific glycine uptake","mouse ATB^0,+ [1]",inhibited
CC(=O)N[C@@H](Cc1c[nH]c2ccccc12)C(=O)O [N-acetyl-L-tryptophan],"inhibition of ATB^0,+-specific glycine uptake","mouse ATB^0,+ [1]",not able to inhibit
same,"inward currents induced in ATB^0,+-expressing oocytes","mouse ATB^0,+ [2]",did not induce currents
NCCCC[C@H](N)C(=O)O [lysine],pIC50,"ATB^0,+ in MCF7 cells",3.30 to 3.60
N[C@@H](Cc1c[nH]c2ccccc12)C(=O)O [tryptophan],effect on cDNA-induced valine uptake,human LAT1/4F2hc,abolished completely
"C[C@@](N)(Cc1c[nH]c2ccccc12)C(=O)O [α-methyl-D-tryptophan, α-Methyl-D-Tryptophan]",inhibition at 1000 µM,"human ATB^0,+",≤ 40%
